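Following 48 hours of exposure in 96-well plates, responses at five concentrations were used to interpolate endpoints linearly. TGI is the concentration that stops growth completely.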
Experiments:
Assay in all cases: growth of human tumour cells (NCI), 48 h
MOLT-4 leukemia = system: MOLT-4 leukemia
SN12C renal = system: SN12C renal
ACHN renal = system: ACHN renal
HCT-116 colon = system: HCT-116 colon
HOP-92 NSCLC = system: HOP-92 NSCLC
KM12 colon = system: KM12 colon
HT29 colon = system: HT29 colon
MDA-MB-435 = system: MDA-MB-435
M14 melanoma = system: M14 melanoma
NCI-H522 lung = system: NCI-H522 lung
TK-10 renal = system: TK-10 renal
NCI-H23 lung = system: NCI-H23 lung

| SMILES | TGI (MOLT-4 leukemia) [µM] | TGI (SN12C renal) [µM] | TGI (ACHN renal) [µM] | TGI (HCT-116 colon) [µM] | TGI (HOP-92 NSCLC) [µM] | TGI (KM12 colon) [µM] | TGI (HT29 colon) [µM] | TGI (MDA-MB-435) [µM] | TGI (M14 melanoma) [µM] | TGI (NCI-H522 lung) [µM] | TGI (TK-10 renal) [µM] | TGI (NCI-H23 lung) [µM] |
| --- | --- | --- | --- | --- | --- | --- | --- | --- | --- | --- | --- | --- |
| O=C1NC(N/N=C/C(O)C(O)C(O)C(O)CO)=N/C1=C\c1cccs1 (centres undefined) | > 100 | > 100 | > 100 | > 100 | > 100 | > 100 | > 100 | > 100 | > 100 | > 100 | > 100 | > 100 |
| CCOC(=O)/C=C/[C@H](O[Si](c1ccccc1)(c1ccccc1)c1ccccc1)C(C)(C)C | > 31.6 | > 31.6 | > 31.6 | > 31.6 | > 31.6 | > 31.6 | > 31.6 | > 31.6 | > 100 | > 31.6 | > 31.6 | > 31.6 |
| C=C1CC(CNc2cc(Cl)nc(N)n2)C1 | > 100 | > 100 | > 100 | – | > 100 | > 100 | > 100 | > 100 | – | > 100 | > 100 | > 100 |
| O=C(/C=C/c1ccc(Cl)c(Cl)c1)CCN1CCN(CCC(=O)/C=C/c2ccc(Cl)c(Cl)c2)CC1 | > 100 | 80.9 | 34.5 | 23.8 | 64.8 | 40.6 | 46.8 | 55.1 | 35.6 | 31.6 | 36.6 | – |
| COc1ccccc1/C=C1/Sc2scc(CC(=O)Nc3ccccc3)[n+]2C1=O | 56.2 | > 100 | > 100 | > 100 | 52.3 | > 100 | > 100 | > 100 | > 100 | 73.4 | 74.3 | > 100 |
| CC1(C)OC[C@@]2([C@@H]3CC[C@@H](C3)C2(C)C)N1O | > 100 | > 100 | > 100 | > 100 | > 100 | > 100 | > 100 | > 100 | > 100 | > 100 | > 100 | > 100 |
| NNC(=O)CCCCCCCC(=O)O | > 100 | > 100 | > 100 | > 100 | > 100 | > 100 | > 100 | > 100 | > 100 | > 100 | > 100 | > 100 |
| CO/N=C1/C(n2[nH]c(=O)n(-c3ccccc3)c2=O)C2C=CC1n1c(=O)n(-c3ccccc3)c(=O)n12 (centres undefined) | > 100 | > 100 | – | > 100 | – | > 100 | > 100 | > 100 | > 100 | > 100 | > 100 | > 100 |
| COC(=O)c1ccc(NCC2=CC(=O)c3ccccc3C2=O)cc1 | > 29.1 | 59.3 | 42.4 | 35.3 | 12.3 | 33 | > 76.4 | 30.3 | 37.1 | 42.3 | 37.1 | 38.2 |
| N#C[C@](CO)(NC(=O)OCc1ccccc1)C(F)F | > 100 | – | > 100 | > 100 | > 100 | > 100 | > 100 | > 100 | > 100 | > 100 | > 100 | > 100 |
| OCC1CCCCN1Cc1nc2ccc(Cl)cc2[nH]1 (centres undefined) | > 100 | > 100 | > 100 | > 100 | > 100 | > 100 | > 100 | > 100 | > 100 | > 100 | > 100 | > 100 |
| Cc1cc2nc3c(C(O)CO)nn(-c4ccccc4)c3nc2cc1C (centres undefined) | > 100 | 32.4 | 32.1 | 36.6 | 45.4 | 33.4 | 46.5 | 47.9 | > 100 | 68 | 35.4 | 54.7 |
| COc1cccc2c1C(=O)c1ccc3cc(CO)cc(O)c3c1C2=O | 4.22 | 2.86 | 3.7 | 0.787 | 2.84 | 6.14 | 3.9 | 0.359 | 1.68 | 5.89 | 8.43 | 1.18 |
| CCOC(=O)c1ccc(Nc2nc3ccc(C(F)(F)F)cc3nc2-c2ccccc2)cc1 | > 100 | > 100 | > 100 | > 100 | – | > 100 | > 100 | > 100 | > 100 | > 100 | > 100 | > 100 |
| COc1cc(/C=C/C(=O)O)ccc1O | > 100 | > 100 | > 100 | > 100 | > 100 | > 100 | > 100 | > 100 | > 100 | > 100 | > 100 | > 100 |
| c1ccc2c(Cc3c[nH]c4ccccc34)c[nH]c2c1 | 61.1 | 31.7 | > 100 | 31.2 | 35.6 | 40.5 | 30.2 | 31.3 | 34.1 | 47.9 | 35.2 | 38.3 |
| C=C(Br)C(Cl)(CBr)CCC(Br)C(C)(C)Cl (centres undefined) | > 10 | > 10 | > 10 | > 10 | > 10 | > 10 | > 10 | > 10 | > 10 | > 10 | > 10 | > 10 |
| COc1ccc(/C=N/n2c(Cc3ccc(Cl)cc3)n[nH]c2=O)cc1 | > 100 | > 100 | > 100 | > 100 | 44.7 | > 100 | 28.2 | > 100 | > 100 | – | – | > 100 |
| O=C(CN=C(CN(c1ccccc1)c1ccccc1)Oc1c([N+](=O)[O-])cc([N+](=O)[O-])cc1[N+](=O)[O-])N1CCNCC1 | > 100 | > 100 | > 100 | > 100 | > 100 | > 100 | > 100 | > 100 | > 100 | > 100 | > 100 | > 100 |

Source: PubChem BioAssay (NCI)
